In article PMC12689914, “Identification of a novel dual-targeting peptide inhibitor of SARS-CoV-2 RBD and NRP1 through structure-based virtual screening” (Frontiers in Pharmacology, 2025):
Non-standard residues stand in square brackets, D forms with d. Residues, ends and D or L forms follow the SMILES beside them.

Test system: SARS-CoV-2 Omicron XBB.1.5 pseudovirus
Settings: Omicron XBB.1.5 pseudovirus, 48 h

## CC(C)C[C@H](NC(=O)[C@H](CCC(=O)O)NC(=O)[C@H](C)NC(=O)[C@@H](N)CCC(=O)O)C(=O)N[C@H](CC(=O)O)C(=O)N[C@H](C(=O)N[C@@H](CO)C(=O)N[C@@H](CC(=O)O)C(=O)N[C@@H](C)C(=O)N[C@@H](Cc1ccccc1)C(=O)N[C@@H](Cc1ccc(O)cc1)C(=O)N[C@@H](CCCNC(=N)N)C(=O)N[C@@H](Cc1ccccc1)C(=O)N[C@@H](Cc1ccccc1)C(=O)N[C@@H](CCCNC(=N)N)C(=O)N[C@@H](CCCNC(=N)N)C(=O)N[C@@H](C)C(=O)N[C@@H](CCCNC(=N)N)C(=O)O)C(C)C [Peptide-1] (H-EAEL[dD]VSDAFYRFFRRAR-OH; N-terminus and C-terminus assumed)
  EC50: 0.62 ± 0.03 µM
